Measurements as given in PubChem BioAssay AID1259407 (Chemical Carcinogenesis Research Information System (CCRIS), 2018).
Active and inactive are the calls of the source. No rule for the calls is given here.

Test system: CCRIS mutagenicity, Ames/micronucleus/aberration tests
Assay: CCRIS mutagenicity studies
[1] = Test System: AMES SALMONELLA TYPHIMURIUM, Strain/Indicator: TA100, Metabolic Activation: NONE, Method: STANDARD PLATE
[2] = Test System: AMES SALMONELLA TYPHIMURIUM, Strain/Indicator: TA98, Metabolic Activation: NONE, Method: STANDARD PLATE

In the case of `CC(=O)OCCC(C)C`, the mutagenic call (Test System: AMES SALMONELLA TYPHIMURIUM, Strain/Indicator: TA97, Metabolic Activation: HAMSTER, LIVER, S-9, AROCLOR 1254 (10%), Method: PREINCUBATION) is reported as “inactive; negative”, the mutagenic call (Test System: AMES SALMONELLA TYPHIMURIUM, Strain/Indicator: TA97, Metabolic Activation: HAMSTER, LIVER, S-9, AROCLOR 1254 (30%), Method: PREINCUBATION) is reported as “inactive; negative” and the mutagenic call (Test System: AMES SALMONELLA TYPHIMURIUM, Strain/Indicator: TA97, Metabolic Activation: NONE, Method: PREINCUBATION) is reported as “inactive; negative”. For the same molecule, the mutagenic call (Test System: AMES SALMONELLA TYPHIMURIUM, Strain/Indicator: TA97, Metabolic Activation: RAT, LIVER, S-9, AROCLOR 1254 (10%), Method: PREINCUBATION) was “inactive; negative”, the mutagenic call (Test System: AMES SALMONELLA TYPHIMURIUM, Strain/Indicator: TA97, Metabolic Activation: RAT, LIVER, S-9, AROCLOR 1254 (30%), Method: PREINCUBATION) was “inactive; negative” and the mutagenic call (Test System: AMES SALMONELLA TYPHIMURIUM, Strain/Indicator: TA98, Metabolic Activation: HAMSTER, LIVER, S-9, AROCLOR 1254 (10%), Method: PREINCUBATION) was “inactive; negative”. For the same molecule, the mutagenic call (Test System: AMES SALMONELLA TYPHIMURIUM, Strain/Indicator: TA98, Metabolic Activation: HAMSTER, LIVER, S-9, AROCLOR 1254 (30%), Method: PREINCUBATION) was “inactive; negative”, the mutagenic call (Test System: AMES SALMONELLA TYPHIMURIUM, Strain/Indicator: TA98, Metabolic Activation: NONE, Method: PREINCUBATION) was “inactive; negative” and the mutagenic call (Test System: AMES SALMONELLA TYPHIMURIUM, Strain/Indicator: TA98, Metabolic Activation: RAT, LIVER, S-9, AROCLOR 1254 (10%), Method: PREINCUBATION) was “inactive; negative”. The mutagenic call (Test System: AMES SALMONELLA TYPHIMURIUM, Strain/Indicator: TA98, Metabolic Activation: RAT, LIVER, S-9, AROCLOR 1254 (30%), Method: PREINCUBATION) was “inactive; negative”, the mutagenic call (Test System: AMES SALMONELLA TYPHIMURIUM, Strain/Indicator: TA100, Metabolic Activation: HAMSTER, LIVER, S-9, AROCLOR 1254 (10%), Method: PREINCUBATION) was “inactive; negative” and the mutagenic call (Test System: AMES SALMONELLA TYPHIMURIUM, Strain/Indicator: TA100, Metabolic Activation: HAMSTER, LIVER, S-9, AROCLOR 1254 (30%), Method: PREINCUBATION) was “inactive; negative”. For the same molecule, the mutagenic call (Test System: AMES SALMONELLA TYPHIMURIUM, Strain/Indicator: TA100, Metabolic Activation: NONE, Method: PREINCUBATION) was “inactive; negative”, the mutagenic call (Test System: AMES SALMONELLA TYPHIMURIUM, Strain/Indicator: TA100, Metabolic Activation: RAT, LIVER, S-9, AROCLOR 1254 (10 OR 30%), Method: PREINCUBATION) was “inactive; negative” and the mutagenic call (Test System: AMES SALMONELLA TYPHIMURIUM, Strain/Indicator: TA1535, Metabolic Activation: HAMSTER, LIVER, S-9, AROCLOR 1254 (10%), Method: PREINCUBATION) was “inactive; negative”. The mutagenic call (Test System: AMES SALMONELLA TYPHIMURIUM, Strain/Indicator: TA1535, Metabolic Activation: HAMSTER, LIVER, S-9, AROCLOR 1254 (30%), Method: PREINCUBATION) was “inactive; negative”, the mutagenic call (Test System: AMES SALMONELLA TYPHIMURIUM, Strain/Indicator: TA1535, Metabolic Activation: NONE, Method: PREINCUBATION) was “inactive; negative” and the mutagenic call (Test System: AMES SALMONELLA TYPHIMURIUM, Strain/Indicator: TA1535, Metabolic Activation: RAT, LIVER, S-9, AROCLOR 1254 (10%), Method: PREINCUBATION) was “inactive; negative”. The mutagenic call (Test System: AMES SALMONELLA TYPHIMURIUM, Strain/Indicator: TA1535, Metabolic Activation: RAT, LIVER, S-9, AROCLOR 1254 (30%), Method: PREINCUBATION) was “inactive; negative”, the mutagenic call (Test System: AMES SALMONELLA TYPHIMURIUM, Strain/Indicator: TA1537, Metabolic Activation: HAMSTER, LIVER, S-9, AROCLOR 1254 (30%), Method: PREINCUBATION) was “inactive; negative” and the mutagenic call (Test System: AMES SALMONELLA TYPHIMURIUM, Strain/Indicator: TA1537, Metabolic Activation: NONE, Method: PREINCUBATION) was “inactive; negative”. The mutagenic call (Test System: AMES SALMONELLA TYPHIMURIUM, Strain/Indicator: TA1537, Metabolic Activation: RAT, LIVER, S-9, AROCLOR 1254 (30%), Method: PREINCUBATION) was “inactive; negative”.

`O=c1c(O)c2c(c3c1ccc1c3cccn1O)O2` was tested, and the mutagenic call [1] was “inactive; negative”.

In the case of `COc1ccc2nc3cc(Cl)ccc3c(NCCCNCCCl)c2n1`, the mutagenic call [2] is reported as “active; positive”, the mutagenic call [1] is reported as “active; positive” and the mutagenic call (Test System: AMES SALMONELLA TYPHIMURIUM, Strain/Indicator: TA1535, Metabolic Activation: NONE, Method: STANDARD PLATE) is reported as “inactive; negative”. The mutagenic call (Test System: AMES SALMONELLA TYPHIMURIUM, Strain/Indicator: TA1536, Metabolic Activation: NONE, Method: STANDARD PLATE) was “active; positive”, the mutagenic call (Test System: AMES SALMONELLA TYPHIMURIUM, Strain/Indicator: TA1537, Metabolic Activation: NONE, Method: STANDARD PLATE) was “active; positive” and the mutagenic call (Test System: AMES SALMONELLA TYPHIMURIUM, Strain/Indicator: TA1538, Metabolic Activation: NONE, Method: STANDARD PLATE) was “active; positive”. The mutagenic call (Test System: CHO/HGPRT, Strain/Indicator: CHO-K1-BH4, Metabolic Activation: NONE, Method: STANDARD PLATE) was “active; positive”.

With `O=[N+]([O-])c1ccc2ccc3c4c(cc5ccc1c2c53)CCCC4` the mutagenic call [2] was “active; positive” and the mutagenic call [1] was “inactive; negative”.
